In patent publication US10501459B2, “Substituted imidazo[1,2-a]pyridines as bromodomain inhibitors” (NEOMED Institute, priority 2015, dated 2019) one finds IC50 data, which are given here for ten compounds.

One assay addresses T1, BRD4(BD1) (Homo sapiens, UniProt O60885).
T1 construct: purchased BPS Bioscience
Kind of assay: In vitro bromodomain inhibition, BRD4(BD1) / biotinylated H4-tetraacetyl peptide AlphaLISA. The class given is binding. The settings on record: His-tagged BRD4 BD1 200 nM, H4 peptide 200 nM, read-out: BRD4α (IC50). Here is the method:
a) In Vitro Bromodomain Inhibition
To measure activity of bromodomain inhibitors, a His-epitope tagged BRD4 BD149-170 is purchased from BPS Bioscience. BRD4 binding and inhibition is assessed by monitoring the engagement of biotinylated H4-tetraacetyl peptide (H4K5/8/12/16; AnaSpec #64989-025) with the target using the AlphaLISA technology (Perkin-Elmer). Specifically, in a 384 well OptiPlate, BRD4(BD1) (200 nM final) is pre-incubated with either DMSO (final 1.0% DMSO) or a compound dilution series in DMSO. All reagents are diluted in assay buffer containing 50 mM HEPES (pH 7.4), 100 mM NaCl, 0.1% (w/v) BSA, and 0.05% (w/v) CHAPS. After a 30 minute incubation at room temperature, H4 peptide is added (200 nM final) and the reaction is incubated an additional 30 minutes at room temperature. Alpha streptavidin donor beads and AlphaLISA nickel chelate acceptor beads are then added to a final concentration of 10 μg/mL each. After one hour, equilibration plates are read on an Envision instrument and IC50s calculated using a four parameter non-linear curve fit.
Background: Alpha assays give light when donor and acceptor beads are brought close together.

The subject of assay [1] is human C-Myc gene transcription in MV-4-11 cells. Kind of assay: Transcription of human C-Myc in human leukemic MV-4-11 cells (QuantiGene 2.0). The class given is cell-based. The following applies: Homo sapiens, MV4-11, 4 h, inhibition of C-Myc mRNA, 4 hours treatment. Here is the method:
b) Transcription of Human C-Myc in Human Leukemic MV-4-11 Cells:
The effect of compounds on transcription of human C-Myc gene is monitored in human B-myelomonocytic leukemia cell line MV-4-11 (from American Type Culture Collection (ATCC), Manassas, Va., USA) using QuantiGene 2.0 assay kit (Affymetrix, Santa Clara, Calif., USA).
Typically, 8,000 MV-4-11 cells are plated in sterile 96-well plates (Costar #3598 from Fisher Scientific Canada, Ottawa, Ontario, Canada) in Iscove's medium supplemented with 10% fetal bovine serum, glutamine (2 mM), and penicillin (100 I.U.) and streptomycin (100 μg/mL) (all from Wisent Inc., St. Bruno, Quebec, Canada). Compounds are dissolved in DMSO at 30 mM. A series of 1:3 dilutions are first made in DMSO, and further […] dilutions are made in serum-containing cell culture media. The final concentration of DMSO is […] in cell culture media. After cells are treated with various concentrations of test compound for 4 hours, cells are lysed using Quantigene 2.0 sample processing kit (#QS0100). C-Myc mRNA is detected using a QuantiGene 2.0 assay kit (#QS0009) with gene-specific probe to human C-Myc (#SA-50182) following the manufacturer's recommendations. Luminescene signals are read on Flexstation II microplate reader (Molecular Devices, Sunnyvale, Calif., USA). Percentage of inhibition of C-Myc transcription is analyzed using EXCEL (2010 version).

Consider `Cc1cc(-c2ccc3ncc(Cc4ccc(F)cc4)n3c2)cn(C)c1=O` [Compound 2, 5-[3-[(4-fluorophenyl)methyl]imidazo[1,2-a]pyridin-6-yl]-1,3-dimethyl-pyridin-2-one], for which the results for the IC50 (at BRD4(BD1); in assay [1]) were 0.0995 µM and 0.0592 µM, respectively.
For `Cc1cc(-c2ccc3ncc(Cc4cccc(F)c4)n3c2)cn(C)c1=O` [Compound 5, 5-[3-[(3-fluorophenyl)methyl]imidazo[1,2-a]pyridin-6-yl]-1,3-dimethyl-pyridin-2-one], in that order: 0.113 µM and 0.0939 µM.
For `Cc1cc(-c2ccc3ncc(Cc4ccccc4)n3c2)cn(C)c1=O` [Compound 1, 5-(3-benzylimidazo[1,2-a]pyridin-6-yl)-1,3-dimethyl-pyridin-2-one], in that order: 0.122 µM and 0.058 µM.
Regarding `Cc1cc(-c2ccc3ncc(COC4CCCC4)n3c2)cn(C)c1=O` [Compound 9, 5-[3-(cyclopentoxymethyl)imidazo[1,2-a]pyridin-6-yl]-1,3-dimethyl-pyridin-2-one], the IC50 at BRD4(BD1) is 0.153 µM; in assay [1], 0.152 µM.
As for `COc1ccc(Cc2cnc3ccc(-c4cc(C)c(=O)n(C)c4)cn23)cc1` [Compound 4, 5-[3-[(4-methoxyphenyl)methyl]imidazo[1,2-a]pyridin-6-yl]-1,3-dimethyl-pyridin-2-one], the IC50 came out at 0.313 µM on BRD4(BD1) and 0.276 µM in assay [1].
For `Cc1cc(-c2ccc3ncc(CNc4ccccc4)n3c2)cn(C)c1=O` [Compound 10, 5-[3-(anilinomethyl)imidazo[1,2-a]pyridin-6-yl]-1,3-dimethyl-pyridin-2-one], the values for the half-inhibitory concentration (IC50) (on BRD4(BD1); in assay [1]) were 0.318 µM and 0.837 µM, respectively.
For the compound `Cc1cc(-c2ccc3ncc(Cc4ccc(Cl)cc4)n3c2)cn(C)c1=O` [Compound 3, 5-[3-[(4-chlorophenyl)methyl]imidazo[1,2-a]pyridin-6-yl]-1,3-dimethyl-pyridin-2-one], the half-inhibitory concentration (IC50) at BRD4(BD1) amounted to 0.143 µM; in assay [1], 0.0863 µM.
Take `Cc1cc(-c2ccc3ncc(CN4CCCCC4)n3c2)cn(C)c1=O` [Compound 8, 1,3-dimethyl-5-[3-(1-piperidylmethyl)imidazo[1,2-a]pyridin-6-yl]pyridin-2-one]: the IC50 on BRD4(BD1) worked out at 0.195 µM; in assay [1] it was 0.844 µM.
As to `CO[C@@H]1CCN(S(=O)(=O)c2cnc3ccc(-c4cc(C)c(=O)n(C)c4)cn23)C1` [Compound 51, (R)-5-(3-((3-methoxypyrrolidin-1-yl)sulfonyl)imidazo [1,2-a]pyridin-6-yl)-1,3-dimethylpyridin-2(1H)-one], half-maximal inhibition in assay [1] (IC50) was put at 0.615 µM.
Same read-out and setting: in the case of `Cc1cc(-c2ccc3ncc(S(=O)(=O)C4CCCC4)n3c2)cn(C)c1=O` [Compound 49, 5-(3-(cyclopentylsulfonyl)imidazo[1,2-a]pyridin-6-yl)-1,3-dimethylpyridin-2(1H)-one] it was 0.851 µM.

The term IC50 denotes the midpoint of a concentration-inhibition curve.
